Measurements: publication PMC4129416, “YLT192, a Novel, Orally Active Bioavailable Inhibitor of VEGFR2 Signaling with Potent Antiangiogenic Activity and Antitumor Efficacy in Preclinical Models” (Scientific Reports, 2014)

Columns and labels:
IR = biological target: T1, IR (Homo sapiens, UniProt P06213); test: Radiometric kinase assay (Millipore Kinase Profile Service); assay type: biochemical; details: means ± SD, two independent experiments, read-out: inhibition rate at 1 μM (%)
T1 construct: purchased Millipore (Kinase Profile Service, UK)
T1 sequence (P06213 28-1382): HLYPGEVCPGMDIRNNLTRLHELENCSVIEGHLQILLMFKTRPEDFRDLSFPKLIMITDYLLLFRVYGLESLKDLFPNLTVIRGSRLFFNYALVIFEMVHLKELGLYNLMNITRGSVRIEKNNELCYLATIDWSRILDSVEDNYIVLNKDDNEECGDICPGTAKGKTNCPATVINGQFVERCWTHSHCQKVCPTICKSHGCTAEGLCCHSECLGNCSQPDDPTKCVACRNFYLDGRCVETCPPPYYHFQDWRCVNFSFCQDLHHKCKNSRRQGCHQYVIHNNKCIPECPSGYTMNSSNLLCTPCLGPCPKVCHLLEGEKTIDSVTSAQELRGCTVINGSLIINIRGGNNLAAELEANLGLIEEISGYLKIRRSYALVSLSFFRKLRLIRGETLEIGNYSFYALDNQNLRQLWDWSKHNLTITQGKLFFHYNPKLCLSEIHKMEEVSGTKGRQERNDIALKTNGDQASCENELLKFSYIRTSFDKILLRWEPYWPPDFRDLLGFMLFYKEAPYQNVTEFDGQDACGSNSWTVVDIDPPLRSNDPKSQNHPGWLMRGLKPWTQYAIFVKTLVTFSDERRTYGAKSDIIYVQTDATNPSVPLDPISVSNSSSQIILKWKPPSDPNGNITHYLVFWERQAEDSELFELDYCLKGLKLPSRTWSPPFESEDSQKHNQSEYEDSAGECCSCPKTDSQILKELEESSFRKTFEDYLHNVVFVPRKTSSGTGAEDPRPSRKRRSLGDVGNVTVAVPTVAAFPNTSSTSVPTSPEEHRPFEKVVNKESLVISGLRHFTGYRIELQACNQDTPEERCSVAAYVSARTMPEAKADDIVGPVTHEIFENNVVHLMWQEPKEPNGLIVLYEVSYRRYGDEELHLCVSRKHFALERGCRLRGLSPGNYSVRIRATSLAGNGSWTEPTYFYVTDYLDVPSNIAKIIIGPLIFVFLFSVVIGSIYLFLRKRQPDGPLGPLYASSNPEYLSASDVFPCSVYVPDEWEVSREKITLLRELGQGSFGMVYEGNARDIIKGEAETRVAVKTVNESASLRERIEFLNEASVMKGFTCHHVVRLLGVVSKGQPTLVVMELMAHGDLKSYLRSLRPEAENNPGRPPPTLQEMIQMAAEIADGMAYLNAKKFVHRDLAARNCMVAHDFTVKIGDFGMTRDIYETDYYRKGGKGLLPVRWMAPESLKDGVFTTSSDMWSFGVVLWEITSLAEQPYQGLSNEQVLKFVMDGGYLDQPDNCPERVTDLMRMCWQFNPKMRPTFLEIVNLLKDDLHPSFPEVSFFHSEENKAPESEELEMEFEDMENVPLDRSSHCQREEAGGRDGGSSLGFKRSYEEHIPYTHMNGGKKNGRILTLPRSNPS
Experimental: (§1) YLT192 was designed and synthesized in the State Key Laboratory of Biotherapy, Sichuan University (Sichuan, China). Its structural formula and synthesis route was shown in Fig. 1A and Supplementary Figure S1, respectively. The kinase inhibitory activity of YLT192 was measured by the use of radiometric assays provided by Kinase Profile Service (Millipore, UK). The effects of YLT192 on kinase activity were detected using the scintillation proximity assay method at an enzymatic level. […] In addition, the inhibitory activity of YLT192 was examined against platelet-derived growth factor receptor (PDGFR)-related kinases because of their structural similarity to the VEGFR2. […] Moreover, excellent selectivity for VEGFR2 was evident compared with a range of unrelated tyrosine and serine/threonine kinases, including fibroblast growth factor receptor 3, polo-like kinase 1, aurora-A, Axl, MET, protein kinase A, c-RAF etc.

PI3K = test: as above; assay type: biochemical; details: means ± SD, two independent experiments
Experimental: as §1

HCT116 tumor xenografts = test: Immunohistochemistry of HCT116 xenograft tumor sections (CD31, Ki67, p-p44/42 MAPK, TUNEL); assay type: in vivo, mice
Experimental: To better understand the mechanism of antitumor activities in vivo, immunohistochemistry was performed using tumor tissues isolated from HCT116 at the end of the treatment. […] Furthermore, we investigated the activity of YLT192 on apoptosis in HCT116 xenograft tumors by terminal deoxynucleotidyl transferase (dUTP) nick end labeling (TUNEL) staining.
Tumour tissues obtained from the mice bearing HCT116 tumors were subjected to immunohistological analysis. Briefly, at the end of the treatment, mice were killed and tumor tissues were obtained. Then CD31 staining was conducted using frozen sections of tissue embedded in optimum cutting temperature[49] and immunohistological detection of anti-Ki67 and p-p44/42 MAPK were performed according to the manufacture's instructions using paraffin-embedded sections of tumor[50]. Apoptotic cells in the tumor tissue were detected by terminal deoxynucleotidyl transferase-mediated dUTP nick end-labeling (TUNEL) staining using an apoptotic cell detection kit (Merck Millipore).

COLO-205 = test: Inhibition of tumor cell growth; assay type: cell-based; details: COLO-205, human colorectal carcinoma; 48 hour treatment; means ± SD, n=3
Text: Data are means ± SD, n=3.
cell line cell type IC50(μM) […]
COLO-205 human colorectal carcinoma 23.0 ±1.5

HCT116 cells [1] = test: Annexin V/propidium iodide apoptosis assay, flow cytometry; assay type: cell-based, human; details: 48 hours; annexin V-FITC and PI staining; concentration-dependent
Experimental: (§2) Figure 4 Inhibitory effects of YLT192 on tumor cells. (A) YLT192 inhibited U251 and HCT116 cells proliferation. The EdU incorporation assay was conducted on U251 and HCT116 cells after treated with YLT192 for 24 hours. The EdU-positive (red fluorescent staining) cells and Hoechst staining (blue fluorescent staining) cells represented proliferating and total cells in the fluorescent images, respectively (100×). Quantification was shown on the right panels. (B) YLT192 induced apoptosis of HCT116 cells. HCT116 cells were treated with YLT192 or vehicle for 48 hours followed by flow cytometric analysis of annexin V-FITC and PI staining. The proportion of early apoptotic cells (annexin V positive) and late apoptotic cells (annexin V and PI positive cells) were shown. Typical apoptosis-related proteins caspase 3 and Bax were detected by western blot. Each has the expression of β-actin as internal control. The full size blots were shown in the Supplemental Figure S6 online. For (A) and (B), one representative experiment of three is shown. Data are means ± SEM, *P < 0.05, **P < 0.01. (C) YLT192 inhibited oncogenic signaling pathways in tumor cells in vitro. U251 and HCT116 cells were treated with YLT192 or vehicle for 48 hours and the expression of protein in different signaling pathways were detected by western blot with specific antibodies. Blots are representative of three experiments. […]

HCT116 cells [2] = test: Western blot of apoptosis-related proteins caspase 3 and Bax; assay type: cell-based, human; details: 48 hours
Experimental: as §2, with “For (A) and (B), one representative experiment of three is shown. Data are means ± SEM, *P < 0.05, **P < 0.01. (C) YLT192 inhibited oncogenic signaling pathways in tumor cells in vitro.” left out, “antibodies.” for “antibodies. Blots are representative of three experiments.”
Supplementary Figure S7. […] HCT116 cells were treated with YLT192 or vehicle for 48 hours and then typical apoptosis-related proteins caspase 3 and Bax were detected by western blot. […]

VEGFR2 = VEGFR2 (Homo sapiens, UniProt P35968); test: Cellular thermal shift assay (target engagement) in intact HUVECs; assay type: binding; parameters: stabilize the target in intact HUVECs; endogenous in cells; host or cells: primary HUVECs (passages 3-8); details: 40 μM, 3 h, 40-49°C
Sequence of VEGFR2 (P35968 20-1356): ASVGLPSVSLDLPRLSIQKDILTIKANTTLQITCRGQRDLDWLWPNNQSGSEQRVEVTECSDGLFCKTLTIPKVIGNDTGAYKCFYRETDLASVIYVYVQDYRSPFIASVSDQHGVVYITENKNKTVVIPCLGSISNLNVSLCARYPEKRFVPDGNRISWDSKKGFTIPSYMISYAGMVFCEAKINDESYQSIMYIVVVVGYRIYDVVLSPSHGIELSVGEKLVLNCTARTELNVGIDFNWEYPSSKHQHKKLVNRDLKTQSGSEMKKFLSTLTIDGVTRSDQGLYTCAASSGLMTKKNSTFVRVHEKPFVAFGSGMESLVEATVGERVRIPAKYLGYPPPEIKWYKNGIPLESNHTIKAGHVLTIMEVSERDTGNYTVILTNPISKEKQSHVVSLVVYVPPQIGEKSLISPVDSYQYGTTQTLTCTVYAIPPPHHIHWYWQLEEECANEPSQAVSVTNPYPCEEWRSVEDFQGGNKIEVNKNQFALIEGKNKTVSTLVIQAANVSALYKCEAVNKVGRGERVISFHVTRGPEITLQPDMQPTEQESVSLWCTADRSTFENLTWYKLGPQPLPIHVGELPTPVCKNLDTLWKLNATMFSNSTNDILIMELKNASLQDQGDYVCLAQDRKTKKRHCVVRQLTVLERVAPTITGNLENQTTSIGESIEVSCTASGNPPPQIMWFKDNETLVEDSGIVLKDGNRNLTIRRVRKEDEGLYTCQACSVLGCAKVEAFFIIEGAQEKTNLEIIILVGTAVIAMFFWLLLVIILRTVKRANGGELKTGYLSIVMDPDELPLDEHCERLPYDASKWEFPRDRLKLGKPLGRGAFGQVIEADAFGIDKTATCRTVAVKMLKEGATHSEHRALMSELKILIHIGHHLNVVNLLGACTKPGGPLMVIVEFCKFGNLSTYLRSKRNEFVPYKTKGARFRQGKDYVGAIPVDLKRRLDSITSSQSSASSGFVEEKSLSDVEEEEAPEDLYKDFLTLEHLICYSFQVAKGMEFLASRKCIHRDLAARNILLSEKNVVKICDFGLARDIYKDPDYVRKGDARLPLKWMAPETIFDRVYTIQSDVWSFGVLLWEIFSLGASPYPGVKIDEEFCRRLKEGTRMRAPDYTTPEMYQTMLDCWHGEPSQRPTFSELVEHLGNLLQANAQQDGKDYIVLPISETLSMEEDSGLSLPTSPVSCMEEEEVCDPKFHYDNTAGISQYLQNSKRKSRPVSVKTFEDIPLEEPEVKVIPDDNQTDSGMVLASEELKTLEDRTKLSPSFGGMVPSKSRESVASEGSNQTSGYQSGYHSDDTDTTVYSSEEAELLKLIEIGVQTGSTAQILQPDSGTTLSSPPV
Experimental: Then we investigate whether YLT192 bind to VEGFR2 in intact HUVECs. If VEGFR2 is bound by YLT192, it will be stabilized by the physical engagement.
The ability of YLT192 to interact with, and thereby stabilize the target in intact HUVECs, was evaluated as described by Molina et al.[22] with some modifications. Briefly, subconfluent HUVECs were incubated with 40 μM YLT192 or vehicle for 3 h. Then the cells were detached with trypsin and collected in TBS containing complete protease inhibitor cocktail. The cells were divided into 4 aliquots and heated individually at 40, 43, 46, 49°C for 3 minutes. Subsequently, the cell suspensions were freeze-thawed three times using liquid nitrogen. Soluble proteins were separated from the precipitated fraction by centrifugation at 17,000 g for 20 min. The proteins were then detected with immunoblot analysis using the VEGFR2-antibody.

Compound: CNC(=O)c1cc(Oc2ccc(NC(=O)c3cccc(OC)c3)cc2)ccn1 [YLT192]
- inhibition at 1 µM (IR): 3 ± 3%
- inhibition rate at 1 μM (%) (PI3K): 0 ± 2%
- apoptotic cells in the tumor tissues, TUNEL staining (HCT116 tumor xenografts; 100 mg/kg): increased apoptotic cells
- phosphorylation of p44/42 MAPK (p-ERK) in tumor tissues (HCT116 tumor xenografts; 100 mg/kg): significant decrease
- reduction of microvessel density (MVD) (HCT116 tumor xenografts; 100 mg/kg oral daily, anti-CD31, vs vehicle): 69%
- Ki67 staining in tumor tissues (HCT116 tumor xenografts; 50 and 100 mg/kg, end of treatment): significant reduction
- IC50 (COLO-205): 23 ± 1.5 µM
- apoptosis in HCT116 cells (HCT116 cells [1]): increased apoptosis
- expression of pro-apoptotic Bax (HCT116 cells [2]): increased
- pro-caspase-3 and its pro-apoptotic cleaved forms (HCT116 cells [2]): a reduction of pro-caspase-3 and an increase in levels of its pro-apoptotic cleaved forms
- thermal stabilization of VEGFR2 (VEGFR2): efficiently stabilized VEGFR2
